Source: PMC8445441, “Elucidating the mechanism by which synthetic helper peptides sensitize Pseudomonas aeruginosa to multiple antibiotics” (PLoS Pathogens, 2021)
Read-outs that look alike come from different tables or passages of the source. Values belong to the molecule of their own block, whether it stands above or below them.

Tests used:
[1] = system: P. aeruginosa AUMC-Pa-3; test: microbe, parasite or virus in culture; settings: for MIC: Pseudomonas aeruginosa, AUMCPA3, 18 h, read-out: MICa: MIC of the antibiotic; for FICI / MICac: MIC of the antibiotic in the combination: strain AUMC-Pa-3; for FICI: antibiotic + D-11 (MICb/MICbc 128/4); for MICac: MIC of the antibiotic in the combination: with D-11 at MICbc 4, unit not given
Outline: (§1)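 Broth microdilution per CLSI in MHB: two-fold drug dilutions mixed with an equal volume of bacterial suspension at approximately 1 × 10^6 CFU/mL, incubated 18 h at 37 °C. MIC was the lowest concentration with no visible growth; triplicate runs.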

[2] = system: P. aeruginosa AUMC-Pa-4; test: microbe, parasite or virus in culture; settings: for MIC: Pseudomonas aeruginosa, AUMCPA4, 18 h, read-out: MICa: MIC of the antibiotic; for FICI / MICac: MIC of the antibiotic in the combination: strain AUMC-Pa-4; for FICI: antibiotic + D-11 (MICb/MICbc 128/4); for MICac: MIC of the antibiotic in the combination: with D-11 at MICbc 4, unit not given
Outline: as §1

[3] = system: P. aeruginosa AUMC-Pa-5; test: microbe, parasite or virus in culture; settings: for MIC: Pseudomonas aeruginosa, AUMCPA5, 18 h, read-out: MICa: MIC of the antibiotic; for FICI / MICac: MIC of the antibiotic in the combination: strain AUMC-Pa-5; for FICI: antibiotic + D-11 (MICb/MICbc 64/4); for MICac: MIC of the antibiotic in the combination: with D-11 at MICbc 4, unit not given
Outline: as §1

[4] = system: P. aeruginosa AUMC-Pa-6; test: microbe, parasite or virus in culture; settings: for MIC: Pseudomonas aeruginosa, AUMCPA6, 18 h, read-out: MICa: MIC of the antibiotic; for FICI / MICac: MIC of the antibiotic in the combination: strain AUMC-Pa-6; for FICI: antibiotic + D-11 (MICb/MICbc 64/4); for MICac: MIC of the antibiotic in the combination: with D-11 at MICbc 4, unit not given
Outline: as §1

[5] = system: P. aeruginosa PAO1; test: microbe, parasite or virus in culture; settings: PAO1; for MIC: Pseudomonas aeruginosa, PAO1, 18 h, read-out: MICa: the MIC of antibiotics, S3 Table, antibiotic alone; for FICI / MICac: the MIC for the antibiotic in the combination: S3 Table
Outline: as §1

[6] = system: P. aeruginosa ATCC27853; test: microbe, parasite or virus in culture; set-up: MICa: MIC of the antibiotic / MICac: MIC of the antibiotic in the combination: unit not given beside the values; settings: for MIC: Pseudomonas aeruginosa, ATCC27853, 18 h, read-out: MICa: MIC of the antibiotic; for FICI / MICac: MIC of the antibiotic in the combination: strain ATCC27853; for FICI: antibiotic + D-11 (MICb/MICbc 32/4); for MICac: MIC of the antibiotic in the combination: with D-11 at MICbc 4, unit not given
Outline: as §1

[7] = system: P. aeruginosa NR-31040; test: microbe, parasite or virus in culture; set-up: MICa: MIC of the antibiotic / MICac: MIC of the antibiotic in the combination: unit not given beside the values; settings: for MIC: Pseudomonas aeruginosa, NR31040, 18 h, read-out: MICa: MIC of the antibiotic; for FICI / MICac: MIC of the antibiotic in the combination: strain NR-31040; for FICI: antibiotic + D-11 (MICb/MICbc 128/4); for MICac: MIC of the antibiotic in the combination: with D-11 at MICbc 4, unit not given
Outline: as §1

[8] = system: P. aeruginosa NR-31041; test: microbe, parasite or virus in culture; set-up: MICa: MIC of the antibiotic / MICac: MIC of the antibiotic in the combination: unit not given beside the values; settings: for MIC: Pseudomonas aeruginosa, NR31041, 18 h, read-out: MICa: MIC of the antibiotic; for FICI / MICac: MIC of the antibiotic in the combination: strain NR-31041; for FICI: antibiotic + D-11 (MICb/MICbc 64/4); for MICac: MIC of the antibiotic in the combination: with D-11 at MICbc 4, unit not given
Outline: as §1

[9] = system: P. aeruginosa PA14; test: microbe, parasite or virus in culture; set-up: MICa: MIC of the antibiotic / MICac: MIC of the antibiotic in the combination: unit not given beside the values; settings: for MIC: Pseudomonas aeruginosa, PA14, 18 h, read-out: MICa: MIC of the antibiotic; for FICI / MICac: MIC of the antibiotic in the combination: strain PA14; for FICI: antibiotic + D-11 (MICb/MICbc 128/4); for MICac: MIC of the antibiotic in the combination: with D-11 at MICbc 4, unit not given
Outline: as §1

[10] = system: P. aeruginosa PAK; test: microbe, parasite or virus in culture; set-up: MICa: MIC of the antibiotic / MICac: MIC of the antibiotic in the combination: unit not given beside the values; settings: for MIC: Pseudomonas aeruginosa, 18 h, read-out: MICa: MIC of the antibiotic; for FICI / MICac: MIC of the antibiotic in the combination: strain PAK; for FICI: antibiotic + D-11 (MICb/MICbc 64/4); for MICac: MIC of the antibiotic in the combination: with D-11 at MICbc 4, unit not given
Outline: as §1

[11] = system: P. aeruginosa HM-214; settings: strain HM-214; antibiotic + D-11 (MICb/MICbc 128/4)
Outline: as §1

[12] = system: P. aeruginosa AUMC-Pa-1; settings: strain AUMC-Pa-1; antibiotic + D-11 (MICb/MICbc 128/4)
Outline: as §1

[13] = system: P. aeruginosa AUMC-Pa-2; settings: strain AUMC-Pa-2; antibiotic + D-11 (MICb/MICbc 64/4)
Outline: as §1

[14] = system: clinical P. aeruginosa isolates; test: microbe, parasite or virus in culture; settings: Pseudomonas aeruginosa, 18 h, antibiotic alone
Outline: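 Broth microdilution per CLSI in MHB, two-fold drug dilutions mixed with an equal volume of bacteria at about 1 × 10^6 CFU/mL. After 18 h at 37 °C, MIC taken as the lowest concentration with no visible growth; run in triplicate.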

[15] = read-out: Antibiotic sensibility (MIC) of clinical P. aeruginosa isolate AUMC-Pa-1, strain AUMC-Pa-1
[16] = read-out: Antibiotic sensibility (MIC) of clinical P. aeruginosa isolate AUMC-Pa-2, strain AUMC-Pa-2
[17] = read-out: Antibiotic sensibility (MIC) of clinical P. aeruginosa isolate AUMC-Pa-3, strain AUMC-Pa-3
[18] = read-out: Antibiotic sensibility (MIC) of clinical P. aeruginosa isolate AUMC-Pa-4, strain AUMC-Pa-4
[19] = read-out: Antibiotic sensibility (MIC) of clinical P. aeruginosa isolate AUMC-Pa-5, strain AUMC-Pa-5
[20] = read-out: Antibiotic sensibility (MIC) of clinical P. aeruginosa isolate AUMC-Pa-6, strain AUMC-Pa-6
[21] = read-out: Antibiotic sensibility (MIC) of clinical P. aeruginosa isolate HM-214, strain HM-214
[22] = read-out: Antibiotic sensibility (MIC) of clinical P. aeruginosa isolate NR-31040, strain NR-31040
[23] = read-out: Antibiotic sensibility (MIC) of clinical P. aeruginosa isolate NR-31041, strain NR-31041

MIC [1]: > 128 µM
MICac: MIC of the antibiotic in the combination [1]: 8
MIC [2]: > 128 µM
MICac: MIC of the antibiotic in the combination [2]: >128/128
MIC [3]: > 128 µM
MICac: MIC of the antibiotic in the combination [3]: >128/>128
MIC [4]: > 128 µM
MICac: MIC of the antibiotic in the combination [4]: 32
MIC [5]: > 128 µM
MICac: the MIC for the antibiotic in the combination ([5]; with 2 μM D-11): 8 µM
MICac: the MIC for the antibiotic in the combination ([5]; with 4 μM D-11): 4 µM
MIC [6]: > 128 µM
MICac: MIC of the antibiotic in the combination [6]: 8
MIC [7]: > 128 µM
MICac: MIC of the antibiotic in the combination [7]: 8
MIC [8]: > 128 µM
MICac: MIC of the antibiotic in the combination [8]: 16
MIC [9]: > 128 µM
MICac: MIC of the antibiotic in the combination [9]: 16
MIC [10]: > 128 µM
MICac: MIC of the antibiotic in the combination [10]: 16
MIC [14, 15]: > 128 µM
MIC [14, 16]: > 128 µM
MIC [14, 17]: > 128 µM
MIC [14, 18]: > 128 µM
MIC [14, 19]: > 128 µM
MIC [14, 20]: > 128 µM
MIC [14, 21]: > 128 µM
MIC [14, 22]: > 128 µM
MIC [14, 23]: > 128 µM
SMILES: CCn1cc(C(=O)O)c(=O)c2ccc(C)nc21 [Nalidixic Acid]
FICI [1]: 0.063
FICI [2]: 0.531
FICI [3]: 1.063
FICI [4]: 0.188
FICI ([5]; antibiotic + 2 μM D-11): 0.094
FICI ([5]; antibiotic + 4 μM D-11): 0.141
FICI [6]: 0.156
FICI [7]: 0.063
FICI [8]: 0.125
FICI [9]: 0.094
FICI [10]: 0.125
FICI [11]: 0.531
FICI [12]: 0.531
FICI [13]: 0.188

MIC [1]: > 128 µM
MICac: MIC of the antibiotic in the combination [1]: 0.5
MIC [2]: > 128 µM
MICac: MIC of the antibiotic in the combination [2]: >128/128
MIC [3]: > 128 µM
MICac: MIC of the antibiotic in the combination [3]: >128/128
MIC [4]: > 128 µM
MICac: MIC of the antibiotic in the combination [4]: >128/128
reduction of the MICs ([5]; in the presence of 4 μM of D-11): 512 fold
MIC [5]: > 128 µM
MICac: the MIC for the antibiotic in the combination ([5]; with 2 μM D-11): 0.5 µM
MICac: the MIC for the antibiotic in the combination ([5]; with 4 μM D-11): 0.5 µM
MIC [6]: > 128 µM
MICac: MIC of the antibiotic in the combination [6]: 2
MIC [7]: > 128 µM
MICac: MIC of the antibiotic in the combination [7]: 64
MIC [8]: > 128 µM
MICac: MIC of the antibiotic in the combination [8]: 4
MIC [9]: > 128 µM
MICac: MIC of the antibiotic in the combination [9]: 8
MIC [10]: > 128 µM
MICac: MIC of the antibiotic in the combination [10]: 2
MIC [14, 15]: > 128 µM
MIC [14, 16]: > 128 µM
MIC [14, 17]: > 128 µM
MIC [14, 18]: > 128 µM
MIC [14, 19]: > 128 µM
MIC [14, 20]: > 128 µM
MIC [14, 21]: > 128 µM
MIC [14, 22]: > 128 µM
MIC [14, 23]: > 128 µM
SMILES: CO[C@@H]1[C@@H](OC(N)=O)[C@@H](O)[C@H](Oc2ccc3c(O)c(NC(=O)c4ccc(O)c(CC=C(C)C)c4)c(=O)oc3c2C)OC1(C)C [Novobiocin]
FICI [1]: 0.033
FICI [2]: 0.531
FICI [3]: 0.563
FICI [4]: 0.563
FICI ([5]; antibiotic + 2 μM D-11): 0.064
FICI [6]: 0.133
FICI [7]: 0.281
FICI [8]: 0.078
FICI [9]: 0.063
FICI [10]: 0.070
FICI [11]: 0.531
FICI [12]: 0.035
FICI [13]: 0.070
